Experimental data: patent US20040127504A1, “Benzimidazoles that are useful in treating sexual dysfunction” (priority 2002, published 2004)

Columns and labels:
Male Fitch ferrets = system: Male Fitch ferrets; parameters: species or system ferret; settings: in vivo, sc
Description: Male Fitch ferrets (body weights 1.0-1.5 kg) were obtained from Marshall Farms. Ferrets were fasted overnight before experimentation. Apomorphine or a compound of the present invention was administrated subcutaneously; animals were placed individually in observation cages and the drug-induced emesis and signs of nausea were determined (by direct observation) for a period of 90 minutes following drug injection. Nausea was characterized by behaviors such as licking, gagging, backing, head burying, and intense abdominal grooming. Emesis was usually preceded by these behaviors and was characterized by rhythmic abdominal contractions which were associated with vomiting or retching movement.
Sterile saline was used as vehicle. Six animals were used per dose.

SMILES	melting point [°C]	induction of emesis in ferrets (Male Fitch ferrets)
Fc1ccccc1N1CCN(Cc2nc3ccccc3[nH]2)CC1 [Example 14, 2-{[4-(2-fluorophenyl)piperazin-1-yl]methyl}-1H-benzimidazole]	262 to 264	
Fc1cccnc1N1CCN(Cc2nc3ccccc3[nH]2)CC1 [Example 28, 2-{[4-(3-fluoropyridin-2-yl)piperazin-1-yl]methyl}-1H-benzimidazole]	210 to 212	
CSc1ccccc1N1CCN(Cc2nc3ccccc3[nH]2)CC1 [Example 18, 2-({4-[2-(methylthio)phenyl]piperazin-1-yl}methyl)-1H-benzimidazole]	214 to 216	
Oc1ccc(N2CCN(Cc3nc4ccccc4[nH]3)CC2)cc1 [Example 17, 4-[4-(1H-benzimidazol-2-ylmethyl)piperazin-1-yl]phenol]	206 to 209	
N#Cc1ccccc1N1CCN(Cc2nc3ccccc3[nH]2)CC1 [Example 12, 2-[4-(1H-benzimidazol-2-ylmethyl)piperazin-1-yl]benzonitrile]	236 to 237	
CN(C)C(=O)n1c(CN2CCN(c3ccccn3)CC2)nc2ccccc21 [Example 10, N,N-dimethyl-2-[(4-pyridin-2-ylpiperazin-1-yl)methyl]-1H-benzimidazole-1-carboxamide]	174 to 176	
N#Cc1cccnc1N1CCN(Cc2nc3ccccc3[nH]2)CC1 [Example 4, 2-[4-(1H-benzimidazol-2-ylmethyl)piperazin-1-yl]nicotinonitrile]	208 to 210	
Oc1ccccc1N1CCN(Cc2nc3ccccc3[nH]2)CC1 [Example 20, 2-[4-(1H-benzimidazol-2-ylmethyl)piperazin-1-yl]phenol]	208 to 216	
C[C@H]1CN(c2ccccn2)CCN1Cc1nc2ccccc2[nH]1 [Example 25, 2-{[(2S)-2-methyl-4-pyridin-2-ylpiperazin-1-yl]methyl}-1H-benzimidazole]	149 to 151	
C[C@@H]1CN(c2ccccn2)CCN1Cc1nc2ccccc2[nH]1 [Example 26, 2-{[(2R)-2-methyl-4-pyridin-2-ylpiperazin-1-yl]methyl}-1H-benzimidazole]	151 to 153	
CC1CN(c2ccccn2)CCN1Cc1nc2ccccc2[nH]1 (centres unmarked) [Example 24, 2-[(2-methyl-4-pyridin-2-ylpiperazin-1-yl)methyl]-1H-benzimidazole]	207 to 209	
c1ccc2[nH]c(CN3CCN(c4nccs4)CC3)nc2c1 [Example 7, 2-{[4-(1,3-thiazol-2-yl)piperazin-1-yl]methyl}-1H-benzimidazole]	203 to 205	
c1cnc(N2CCN(Cc3nc4ccccc4[nH]3)CC2)nc1 [Example 2, 2-[(4-pyrimidin-2-ylpiperazin-1-yl)methyl]-1H-benzimidazole]	198 to 200	
c1ccc(N2CCN(Cc3nc4ccccc4[nH]3)CC2)nc1 [2-[(4-pyridin-2-ylpiperazin-1-yl)methyl]-1H-benzimidazole]		did not induce emesis
Clc1ccccc1N1CCN(Cc2nc3ccccc3[nH]2)CC1 [Example 13, 2-{[4-(2-chlorophenyl)piperazin-1-yl]methyl}-1H-benzimidazole]	245 to 246	
O=C(N1CCCC1)n1c(CN2CCN(c3ccccn3)CC2)nc2ccccc21 [Example 9, 2-[(4-pyridin-2-ylpiperazin-1-yl)methyl]-1-(pyrrolidin-1-ylcarbonyl)-1H-benzimidazole]	120 to 121	
Oc1ccc(N2CCN(Cc3nc4ccccc4[nH]3)CC2)nc1 [6-[4-(1H-benzimidazol-2-ylmethyl)piperazin-1-yl]pyridin-3-ol]	144 to 145	
